These are literature values, as cited in patent US20240032557A1, “AN IRON FORTIFIED TEA COMPOSITION” (Ekaterra Tea Manufacturing USA LLC, priority 2020, published 2024).

The conditions of the data set: water at 25° C.

In the case of `O=C([O-])/C=C/C(=O)[O-].[Fe+2]` [ferrous fumarate], the solubility is given as 0.14 g/100 g water.
